Experimental data as given in paper PMC10511043 (Cell Structure and Function, 2020).

Biological target: LCMV Z protein (Zabton-3 / Zabton FRET biosensor, trimeric tandem Z) (Lymphocytic choriomeningitis virus (strain Armstrong), UniProt P18541)
Sequence (P18541 whole entry, looked up): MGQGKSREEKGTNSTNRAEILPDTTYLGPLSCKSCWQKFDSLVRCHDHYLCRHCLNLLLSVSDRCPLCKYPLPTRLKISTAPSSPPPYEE

Nc1nc(N)c2c3c(sc2n1)CN(Cc1ccccc1)CC3 [#4, 5,6,7,8-tetrahydro-7-(benzyl)-pyrido[4',3':4,5]thieno[2,3-d]pyrimidin-2,4-diamine]
decrease of FRET/CFP emission ratio: both of them decreased the FRET ratio in a concentration-dependent manner
